Earlier results, collected in patent US9329191B2, “Reaction-based fluorescent probe for selective detection of carbon monoxide using metal-mediated carbonylation” (THE REGENTS OF THE UNIVERSITY OF CALIFORNIA, priority 2013, dated 2016).

Conditions: literature

Compound: NCC(=O)O.[C-]#[O+].[C-]#[O+].[C-]#[O+].[Cl][Ru] [CORM-3, [Ru(CO)3Cl(glycinate)]]
- CORM-3 concentration shown to not alter cell viability: up to 500 μM
